The text below walks through data of ChEMBL document CHEMBL1629672, “blaCTX-M genes in escherichia coli strains from Croatian Hospitals are located in new (blaCTX-M-3a) and widely spread (blaCTX-M-3a and blaCTX-M-15) genetic structures” (2009).

Each structure is given as a SMILES string. ≈ marks a conversion by molar mass, not a printed value.

The subject of the first assay is Escherichia coli. Description: Antimicrobial activity against Escherichia coli isolate 32 harboring bla CTX-M-3a gene by broth microdilution method. The class given is functional.
Details: not given
(In general: Broth dilution looks for growth in wells or tubes with falling amounts of substance.)
Regarding `CO/N=C(\C(=O)N[C@@H]1C(=O)N2C(C(=O)O)=C(COC(C)=O)CS[C@H]12)c1csc(N)n1` [CEFOTAXIME], the MIC was more than 1020 µg/mL.

For `CC1(C)S[C@@H]2[C@H](NC(=O)[C@H](N)c3ccc(O)cc3)C(=O)N2[C@H]1C(=O)O` [AMOXICILLIN], the MIC came to 8 µg/mL (≈ 21.9 µM).

In turn, `CCN1CCN(C(=O)N[C@@H](C(=O)N[C@@H]2C(=O)N3[C@@H]2SC(C)(C)[C@@H]3C(=O)O)c2ccccc2)C(=O)C1=O` [PIPERACILLIN] registered an MIC of more than 1020 µg/mL.

The test system of the next assay is Escherichia coli. Description: Antimicrobial activity against Escherichia coli isolate 36 harboring bla CTX-M-3a gene by broth microdilution method. The class given is functional.
Details: not given
For `CO/N=C(\C(=O)N[C@@H]1C(=O)N2C(C(=O)O)=C(COC(C)=O)CS[C@H]12)c1csc(N)n1` [CEFOTAXIME], the MIC was found to be 512 µg/mL (≈ 1120 µM).

`CC1(C)S[C@@H]2[C@H](NC(=O)[C@H](N)c3ccc(O)cc3)C(=O)N2[C@H]1C(=O)O` [AMOXICILLIN] showed an MIC of 8 µg/mL (≈ 21.9 µM).

As to `CCN1CCN(C(=O)N[C@@H](C(=O)N[C@@H]2C(=O)N3[C@@H]2SC(C)(C)[C@@H]3C(=O)O)c2ccccc2)C(=O)C1=O` [PIPERACILLIN], the MIC is more than 1020 µg/mL.

The test system of another assay is Escherichia coli. Nature of the assay: Antimicrobial activity against Escherichia coli isolate 36 harboring bla CTX-M-3a gene by broth microdilution method in presence of clavulanic acid.
Details: not given
Take `CO/N=C(\C(=O)N[C@@H]1C(=O)N2C(C(=O)O)=C(COC(C)=O)CS[C@H]12)c1csc(N)n1` [CEFOTAXIME]: the MIC amounted to 0.06 µg/mL.

The subject of another assay is Escherichia coli. Description: Antimicrobial activity against Escherichia coli isolate 49 harboring bla CTX-M-3a gene by broth microdilution method in presence of clavulanic acid.
Details: not given
Take `CO/N=C(\C(=O)N[C@@H]1C(=O)N2C(C(=O)O)=C(COC(C)=O)CS[C@H]12)c1csc(N)n1` [CEFOTAXIME]: the MIC was determined as 0.06 µg/mL.

The subject of the next assay is Escherichia coli. Nature of the assay: Antimicrobial activity against Escherichia coli isolate 16 harboring bla CTX-M-3a gene by broth microdilution method.
Details: not given
The class given is functional.
`CO/N=C(\C(=O)N[C@@H]1C(=O)N2C(C(=O)O)=C(COC(C)=O)CS[C@H]12)c1csc(N)n1` [CEFOTAXIME] had an MIC of 64 µg/mL (≈ 141 µM).

Take `CC1(C)S[C@@H]2[C@H](NC(=O)[C@H](N)c3ccc(O)cc3)C(=O)N2[C@H]1C(=O)O` [AMOXICILLIN]: the MIC is 4 µg/mL (≈ 10.9 µM).

Regarding `CCN1CCN(C(=O)N[C@@H](C(=O)N[C@@H]2C(=O)N3[C@@H]2SC(C)(C)[C@@H]3C(=O)O)c2ccccc2)C(=O)C1=O` [PIPERACILLIN], the MIC was determined as 256 µg/mL (≈ 495 µM).

A further assay has as its system Escherichia coli. Nature of the assay: Antimicrobial activity against Escherichia coli ATCC 25922 harboring bla CTX-M-3a gene by broth microdilution method in presence of Tazobactam. The class given is functional.
Details: not given
In the case of `CCN1CCN(C(=O)N[C@@H](C(=O)N[C@@H]2C(=O)N3[C@@H]2SC(C)(C)[C@@H]3C(=O)O)c2ccccc2)C(=O)C1=O` [PIPERACILLIN], the MIC was 2 µg/mL.

The next assay concerns Escherichia coli. Nature of the assay: Antimicrobial activity against Escherichia coli isolate 86 harboring bla CTX-M-3a gene by broth microdilution method in presence of Tazobactam. The class given is functional.
Details: not given
Turning to `CCN1CCN(C(=O)N[C@@H](C(=O)N[C@@H]2C(=O)N3[C@@H]2SC(C)(C)[C@@H]3C(=O)O)c2ccccc2)C(=O)C1=O` [PIPERACILLIN], the MIC is more than 128 µg/mL.

The subject of another assay is Escherichia coli. Nature of the assay: Antimicrobial activity against Escherichia coli isolate 32 harboring bla CTX-M-3a gene by broth microdilution method in presence of Tazobactam. The class given is functional.
Details: not given
Take `CCN1CCN(C(=O)N[C@@H](C(=O)N[C@@H]2C(=O)N3[C@@H]2SC(C)(C)[C@@H]3C(=O)O)c2ccccc2)C(=O)C1=O` [PIPERACILLIN]: the MIC amounted to 16 µg/mL.

The test system of the next assay is Escherichia coli. Nature of the assay: Antimicrobial activity against Escherichia coli isolate 49 harboring bla CTX-M-3a gene by broth microdilution method in presence of Tazobactam. The class given is functional.
Details: not given
In the case of `CCN1CCN(C(=O)N[C@@H](C(=O)N[C@@H]2C(=O)N3[C@@H]2SC(C)(C)[C@@H]3C(=O)O)c2ccccc2)C(=O)C1=O` [PIPERACILLIN], the MIC stood at 8 µg/mL.

A further assay concerns Escherichia coli. Nature of the assay: Antimicrobial activity against Escherichia coli isolate 100 harboring bla CTX-M-3a gene by broth microdilution method in presence of clavulanic acid.
Details: not given
Regarding `CO/N=C(\C(=O)N[C@@H]1C(=O)N2C(C(=O)O)=C(COC(C)=O)CS[C@H]12)c1csc(N)n1` [CEFOTAXIME], the MIC was found to be 0.06 µg/mL.

For a further assay, the system named is Escherichia coli. Nature of the assay: Antimicrobial activity against Escherichia coli isolate 32 harboring bla CTX-M-3a gene by broth microdilution method in presence of clavulanic acid.
Details: not given
`CO/N=C(\C(=O)N[C@@H]1C(=O)N2C(C(=O)O)=C(COC(C)=O)CS[C@H]12)c1csc(N)n1` [CEFOTAXIME]: the MIC is 0.06 µg/mL.

A further assay concerns Escherichia coli. Nature of the assay: Antimicrobial activity against Escherichia coli isolate 49 harboring bla CTX-M-3a gene by broth microdilution method. The class given is functional.
Details: not given
Regarding `CO/N=C(\C(=O)N[C@@H]1C(=O)N2C(C(=O)O)=C(COC(C)=O)CS[C@H]12)c1csc(N)n1` [CEFOTAXIME], the MIC was 128 µg/mL (≈ 281 µM).

For the molecule `CC1(C)S[C@@H]2[C@H](NC(=O)[C@H](N)c3ccc(O)cc3)C(=O)N2[C@H]1C(=O)O` [AMOXICILLIN], the MIC turned out to be 1 µg/mL (≈ 2.74 µM).

Molecule `CCN1CCN(C(=O)N[C@@H](C(=O)N[C@@H]2C(=O)N3[C@@H]2SC(C)(C)[C@@H]3C(=O)O)c2ccccc2)C(=O)C1=O` [PIPERACILLIN] came in with an MIC of 64 µg/mL (≈ 124 µM).

Another assay deals with Escherichia coli. Nature of the assay: Antimicrobial activity against Escherichia coli isolate 86 harboring bla CTX-M-3a gene by broth microdilution method in presence of clavulanic acid.
Details: not given
As for `CO/N=C(\C(=O)N[C@@H]1C(=O)N2C(C(=O)O)=C(COC(C)=O)CS[C@H]12)c1csc(N)n1` [CEFOTAXIME], the MIC turned out to be 0.125 µg/mL.

The subject of another assay is Escherichia coli. Description: microbe, parasite or virus in culture. The settings on record: ATCC 25922.
For `CO/N=C(\C(=O)N[C@@H]1C(=O)N2C(C(=O)O)=C(COC(C)=O)CS[C@H]12)c1csc(N)n1` [CEFOTAXIME], the MIC was 0.06 µg/mL (≈ 0.132 µM).

For the molecule `CC1(C)S[C@@H]2[C@H](NC(=O)[C@H](N)c3ccc(O)cc3)C(=O)N2[C@H]1C(=O)O` [AMOXICILLIN], the MIC stood at 4 µg/mL (≈ 10.9 µM).

`CCN1CCN(C(=O)N[C@@H](C(=O)N[C@@H]2C(=O)N3[C@@H]2SC(C)(C)[C@@H]3C(=O)O)c2ccccc2)C(=O)C1=O` [PIPERACILLIN]: the MIC was 2 µg/mL (≈ 3.86 µM).

For a further assay, the system named is Escherichia coli. Nature of the assay: Antimicrobial activity against Escherichia coli isolate Z1 harboring bla CTX-M-3a gene by broth microdilution method in presence of clavulanic acid.
Details: not given
As to `CO/N=C(\C(=O)N[C@@H]1C(=O)N2C(C(=O)O)=C(COC(C)=O)CS[C@H]12)c1csc(N)n1` [CEFOTAXIME], the MIC was found to be 0.5 µg/mL.

The test system of a further assay is Escherichia coli. Description: Antimicrobial activity against Escherichia coli isolate 16 harboring bla CTX-M-3a gene by broth microdilution method in presence of Tazobactam. The class given is functional.
Details: not given
For `CCN1CCN(C(=O)N[C@@H](C(=O)N[C@@H]2C(=O)N3[C@@H]2SC(C)(C)[C@@H]3C(=O)O)c2ccccc2)C(=O)C1=O` [PIPERACILLIN], the MIC worked out at 2 µg/mL.

The subject of another assay is Escherichia coli. Nature of the assay: Antimicrobial activity against Escherichia coli isolate 16 harboring bla CTX-M-3a gene by broth microdilution method in presence of clavulanic acid.
Details: not given
With `CO/N=C(\C(=O)N[C@@H]1C(=O)N2C(C(=O)O)=C(COC(C)=O)CS[C@H]12)c1csc(N)n1` [CEFOTAXIME], the MIC stood at 0.125 µg/mL.

Another assay deals with Escherichia coli. Description: Antimicrobial activity against Escherichia coli isolate 100 harboring bla CTX-M-3a gene by broth microdilution method. The class given is functional.
Details: not given
In turn, `CO/N=C(\C(=O)N[C@@H]1C(=O)N2C(C(=O)O)=C(COC(C)=O)CS[C@H]12)c1csc(N)n1` [CEFOTAXIME] came in with an MIC of 128 µg/mL (≈ 281 µM).

Molecule `CC1(C)S[C@@H]2[C@H](NC(=O)[C@H](N)c3ccc(O)cc3)C(=O)N2[C@H]1C(=O)O` [AMOXICILLIN] gave an MIC of 8 µg/mL (≈ 21.9 µM).

For `CCN1CCN(C(=O)N[C@@H](C(=O)N[C@@H]2C(=O)N3[C@@H]2SC(C)(C)[C@@H]3C(=O)O)c2ccccc2)C(=O)C1=O` [PIPERACILLIN], the MIC was more than 1020 µg/mL.

In another assay the test system is Escherichia coli. Nature of the assay: Antimicrobial activity against Escherichia coli isolate 36 harboring bla CTX-M-3a gene by broth microdilution method in presence of Tazobactam.
Details: not given
The class given is functional.
As to `CCN1CCN(C(=O)N[C@@H](C(=O)N[C@@H]2C(=O)N3[C@@H]2SC(C)(C)[C@@H]3C(=O)O)c2ccccc2)C(=O)C1=O` [PIPERACILLIN], the MIC was 4 µg/mL.

The test system of a further assay is Escherichia coli. Description: Antimicrobial activity against Escherichia coli isolate 86 harboring bla CTX-M-3a gene by broth microdilution method.
Details: not given
The class given is functional.
Molecule `CO/N=C(\C(=O)N[C@@H]1C(=O)N2C(C(=O)O)=C(COC(C)=O)CS[C@H]12)c1csc(N)n1` [CEFOTAXIME] gave an MIC of more than 1020 µg/mL.

As for `CC1(C)S[C@@H]2[C@H](NC(=O)[C@H](N)c3ccc(O)cc3)C(=O)N2[C@H]1C(=O)O` [AMOXICILLIN], the MIC worked out at 8 µg/mL (≈ 21.9 µM).

Turning to `CCN1CCN(C(=O)N[C@@H](C(=O)N[C@@H]2C(=O)N3[C@@H]2SC(C)(C)[C@@H]3C(=O)O)c2ccccc2)C(=O)C1=O` [PIPERACILLIN], the MIC was more than 1020 µg/mL.

The next assay has as its system Escherichia coli. Description: Antimicrobial activity against Escherichia coli ATCC 25922 harboring bla CTX-M-3a gene by broth microdilution method in presence of clavulanic acid.
Details: not given
The class given is functional.
With `CO/N=C(\C(=O)N[C@@H]1C(=O)N2C(C(=O)O)=C(COC(C)=O)CS[C@H]12)c1csc(N)n1` [CEFOTAXIME], the MIC was not above 0.03 µg/mL.

The next assay relates to Escherichia coli. Description: Antimicrobial activity against Escherichia coli isolate Z1 harboring bla CTX-M-3a gene by broth microdilution method.
Details: not given
The class given is functional.
`CO/N=C(\C(=O)N[C@@H]1C(=O)N2C(C(=O)O)=C(COC(C)=O)CS[C@H]12)c1csc(N)n1` [CEFOTAXIME] returned an MIC of more than 1020 µg/mL.

Take `CC1(C)S[C@@H]2[C@H](NC(=O)[C@H](N)c3ccc(O)cc3)C(=O)N2[C@H]1C(=O)O` [AMOXICILLIN]: the MIC was determined as 32 µg/mL (≈ 87.6 µM).

For `CCN1CCN(C(=O)N[C@@H](C(=O)N[C@@H]2C(=O)N3[C@@H]2SC(C)(C)[C@@H]3C(=O)O)c2ccccc2)C(=O)C1=O` [PIPERACILLIN], the MIC was more than 1020 µg/mL.

The next assay deals with Escherichia coli. Nature of the assay: Antimicrobial activity against Escherichia coli isolate 100 harboring bla CTX-M-3a gene by broth microdilution method in presence of Tazobactam. The class given is functional.
Details: not given
Regarding `CCN1CCN(C(=O)N[C@@H](C(=O)N[C@@H]2C(=O)N3[C@@H]2SC(C)(C)[C@@H]3C(=O)O)c2ccccc2)C(=O)C1=O` [PIPERACILLIN], the MIC turned out to be 4 µg/mL.
